Data on one compound can be found in ChEMBL document CHEMBL1147038, “Structural basis for the specific inhibition of protein kinase G, a virulence factor of Mycobacterium tuberculosis” (Proc Natl Acad Sci U S A, 2007).

Structures are written as SMILES. Active and inactive are the calls of the source. The calls are words filed in the database; no cut-off is given here.

Assay [1] has as its system J774. Kind of assay: Effect on Phorbol 12-myristate 13-acetate-induced macropinocytosis in mouse J774 macrophage cells at 20 uM by video microscopy. Format: functional, cell-based.
Assay [2] concerns J774. The experiment in a line: Effect on Phorbol 12-myristate 13-acetate-induced membrane ruffling in mouse J774 macrophage cells at 20 uM by video microscopy. Format: functional, cell-based.
For assay [3], the system named is J774. Kind of assay: Effect on Phorbol 12-myristate 13-acetate-induced cellular morphology in mouse J774 macrophage cells at 20 uM by video microscopy. It is filed as functional, cell-based.
Assay [4] has as its target Serine/threonine-protein kinase PknG (Mycobacterium tuberculosis) (UniProt P9WI73). The experiment in a line: Inhibition of Mycobacterium tuberculosis Protein kinase G by radiometric ATP consumptive assay.

Chain of Serine/threonine-protein kinase PknG (Mycobacterium tuberculosis) (P9WI73 whole entry): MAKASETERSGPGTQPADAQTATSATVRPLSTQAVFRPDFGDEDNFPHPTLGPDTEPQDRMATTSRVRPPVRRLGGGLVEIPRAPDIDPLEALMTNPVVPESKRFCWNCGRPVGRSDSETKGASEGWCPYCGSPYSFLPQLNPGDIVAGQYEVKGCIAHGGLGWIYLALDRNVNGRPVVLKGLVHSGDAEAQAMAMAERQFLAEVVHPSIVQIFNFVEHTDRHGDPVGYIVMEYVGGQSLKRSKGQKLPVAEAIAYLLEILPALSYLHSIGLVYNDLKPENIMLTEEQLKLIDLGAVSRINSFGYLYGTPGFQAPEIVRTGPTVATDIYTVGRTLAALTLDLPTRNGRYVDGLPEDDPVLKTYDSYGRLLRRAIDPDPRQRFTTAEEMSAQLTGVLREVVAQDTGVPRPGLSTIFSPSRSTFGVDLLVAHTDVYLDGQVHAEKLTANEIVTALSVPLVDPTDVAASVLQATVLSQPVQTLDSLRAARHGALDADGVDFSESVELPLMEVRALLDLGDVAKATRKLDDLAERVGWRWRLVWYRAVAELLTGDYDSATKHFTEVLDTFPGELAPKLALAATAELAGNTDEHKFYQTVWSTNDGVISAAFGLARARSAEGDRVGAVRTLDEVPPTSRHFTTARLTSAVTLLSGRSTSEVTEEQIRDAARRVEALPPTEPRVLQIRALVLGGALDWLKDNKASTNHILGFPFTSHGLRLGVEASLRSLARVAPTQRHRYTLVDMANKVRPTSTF

As for `NC(=O)c1c(NC(=O)C2CC2)sc2c1CCCC2`, the result in assay [1], in assay [2] and in assay [3] was inactive. The result in assay [4] was Active.
